Measured values from patent US8952024B2, “Herbicidal pyrimidone derivatives” (E I du Pont de Nemours and Company, priority 2009, dated 2015).

Key:
Assay type in all cases: in vivo
[1] = system: canarygrass (Phalaris minor); assay: Test B postemergence plant response; conditions: Postemergence
Source text: (§1) At the same time, plants selected from these crop and weed species and also winter barley (Hordeum vulgare), canarygrass (Phalaris minor), chickweed (Stellaria media) and windgrass (Apera spica-venti) were planted in pots containing Redi-Earth® planting medium (Scotts Company, 14111 Scottslawn Road, Marysville, Ohio 43041) comprising spaghnum peat moss, vermiculite, wetting agent and starter nutrients and treated with postemergence applications of some of the test chemicals formulated in the same manner. Plants ranged in height from 2 to 18 cm (1- to 4-leaf stage) for postemergence treatments.
(§2) Treated plants and controls were maintained in a greenhouse for 13 to 15 days, after which time all treated plants were visually evaluated and compared to controls. Plant response ratings, summarized in Table B, are based on a scale of 0 to 100 where 0 is no effect and 100 is complete control. A dash (-) response means no test result.

[2] = system: windgrass (Apera spica-venti); assay: Test B postemergence plant response; conditions: Postemergence
Source text: as §1, §2

[3] = system: chickweed (Stellaria media); assay: Test B postemergence plant response; conditions: Postemergence
Source text: as §1, §2

[4] = system: winter barley (Hordeum vulgare); assay: Test B postemergence plant response; conditions: for Barley plant response rating (0 to 100 scale): 62 g ai/ha, postemergence, 0 is no effect, 100 is complete control; for Plant response rating, Barley: Postemergence
Source text: as §1, §2

[5] = system: lambsquarters (Chenopodium album); assay: Test B pre-/postemergence plant response; conditions: Postemergence
Source text: (§3) Seeds of plant species selected from blackgrass (Alopecurus myosuroides), downy bromegrass (Bromus tectorum), green foxtail (Setaria viridis), Italian ryegrass (Lolium multiflorum), wheat (Triticum aestivum), wild oat (Avena fatua), deadnettle (henbit deadnettle, Lamium amplexicaule), galium (catchweed bedstraw, Galium aparine), bermudagrass (Cynodon dactylon), Surinam grass (Brachiaria decumbens), cocklebur (Xanthium strumarium), corn (Zea mays), large crabgrass (Digitaria sanguinalis), woolly cupgrass (Eriochloa villosa), giant foxtail (Setaria faberii), goosegrass (Eleusine indica), johnsongrass (Sorghum halepense), kochia (Kochia scoparia), lambsquarters (Chenopodium album), morningglory (Ipomoea coccinea), nightshade (eastern black nightshade, Solanum ptycanthum), yellow nutsedge (Cyperus esculentus), pigweed (Amaranthus retroflexus), ragweed (common ragweed, Ambrosia elatior), Russian thistle (Salsola kali), soybean (Glycine max), sunflower (common oilseed sunflower, Helianthus annuus) and velvetleaf (Abutilon theophrasti) were planted into a blend of loam soil and sand and treated preemergence with test compounds formulated in a non-phytotoxic solvent mixture which included a surfactant.
as §1, §2

wild oat (Avena fatua) = assay: Test B pre-/postemergence plant response; conditions: Postemergence
Source text: as §3, §1, §2

[6] = system: large crabgrass (Digitaria sanguinalis); assay: Test B pre-/postemergence plant response; conditions: Postemergence
Source text: as §3, §1, §2

soybean (Glycine max) = assay: Test B pre-/postemergence plant response; conditions: Postemergence
Source text: as §3, §1, §2

[7] = system: woolly cupgrass (Eriochloa villosa); assay: Test B pre-/postemergence plant response; conditions: Postemergence
Source text: as §3, §1, §2

[8] = system: ragweed (common ragweed, Ambrosia elatior); assay: Test B pre-/postemergence plant response; conditions: Postemergence
Source text: as §3, §1, §2

[9] = system: velvetleaf (Abutilon theophrasti); assay: Test B pre-/postemergence plant response; conditions: Postemergence
Source text: as §3, §1, §2

[10] = system: bermudagrass (Cynodon dactylon); assay: Test B pre-/postemergence plant response; conditions: for Bermudagrass plant response rating (0 to 100 scale): 62 g ai/ha, postemergence, 0 is no effect, 100 is complete control; for Plant response rating, Bermudagrass: Postemergence
Source text: as §3, §1, §2

[11] = system: yellow nutsedge (Cyperus esculentus); assay: Test B pre-/postemergence plant response; conditions: Postemergence
Source text: as §3, §1, §2

[12] = system: johnsongrass (Sorghum halepense); assay: Test B pre-/postemergence plant response; conditions: Postemergence
Source text: as §3, §1, §2

[13] = system: blackgrass (Alopecurus myosuroides); assay: Test B pre-/postemergence plant response; conditions: for Blackgrass plant response rating (0 to 100 scale): 62 g ai/ha, postemergence, 0 is no effect, 100 is complete control; for Plant response rating, Blackgrass: Postemergence
Source text: as §3, §1, §2

corn (Zea mays) = assay: Test B pre-/postemergence plant response; conditions: Postemergence
Source text: as §3, §1, §2

[14] = system: Italian ryegrass (Lolium multiflorum); assay: Test B pre-/postemergence plant response; conditions: Postemergence
Source text: as §3, §1, §2

[15] = 31 g ai/ha, 0 to 100 scale (0 no effect, 100 complete control)
[16] = 125 g ai/ha, scale 0 to 100 (0 no effect, 100 complete control)
[17] = 250 g ai/ha, scale 0 to 100 (0 no effect, 100 complete control), 13 to 15 days

Structure (SMILES): CCCn1c(-c2cc(Cl)cc(Cl)c2)ncc(C(=O)C2=C(O)CCCC2=O)c1=O [Compound 173]
- Plant response rating, Canarygrass [1, 15]: 10
- Plant response rating, Canarygrass [1, 16]: 40
- Plant response rating, Canarygrass [1, 17]: 80
- Plant response rating, Windgrass [2, 15]: 30
- Plant response rating, Windgrass [2, 16]: 70
- Plant response rating, Windgrass [2, 17]: 75
- Plant response rating, Chickweed [3, 15]: 65
- Plant response rating, Chickweed [3, 16]: 100
- Plant response rating, Chickweed [3, 17]: 100
- Barley plant response rating (0 to 100 scale) ([4]; 13 to 15 days): 20
- Plant response rating, Barley [4, 15]: 5
- Plant response rating, Barley [4, 16]: 35
- Plant response rating, Barley [4, 17]: 50
- Plant response rating, Lambsquarters [5, 15]: 98
- Plant response rating, Lambsquarters [5, 16]: 100
- Plant response rating, Lambsquarters [5, 17]: 100
- Plant response rating, Oat, Wild (wild oat (Avena fatua); [15]): 50
- Plant response rating, Oat, Wild (wild oat (Avena fatua); [16]): 70
- Plant response rating, Oat, Wild (wild oat (Avena fatua); [17]): 85
- Plant response rating, Crabgrass, Large [6, 15]: 70
- Plant response rating, Crabgrass, Large [6, 16]: 95
- Plant response rating, Crabgrass, Large [6, 17]: 100
- Plant response rating, Soybean (soybean (Glycine max); [15]): 60
- Plant response rating, Soybean (soybean (Glycine max); [16]): 95
- Plant response rating, Soybean (soybean (Glycine max); [17]): 100
- Plant response rating, Cupgrass, Woolly [7, 15]: 85
- Plant response rating, Cupgrass, Woolly [7, 16]: 100
- Plant response rating, Cupgrass, Woolly [7, 17]: 100
- Plant response rating, Ragweed [8, 15]: 55
- Plant response rating, Ragweed [8, 16]: 90
- Plant response rating, Ragweed [8, 17]: 98
- Plant response rating, Velvetleaf [9, 15]: 100
- Plant response rating, Velvetleaf [9, 16]: 100
- Plant response rating, Velvetleaf [9, 17]: 100
- Bermudagrass plant response rating (0 to 100 scale) ([10]; 13 to 15 days): 98
- Plant response rating, Bermudagrass [10, 15]: 98
- Plant response rating, Bermudagrass [10, 16]: 100
- Plant response rating, Bermudagrass [10, 17]: 100
- Plant response rating, Nutsedge, Yellow [11, 15]: 45
- Plant response rating, Nutsedge, Yellow [11, 16]: 60
- Plant response rating, Nutsedge, Yellow [11, 17]: 75
- Plant response rating, Johnsongrass [12, 15]: 65
- Plant response rating, Johnsongrass [12, 16]: 95
- Blackgrass plant response rating (0 to 100 scale) ([13]; 13 to 15 days): 10
- Plant response rating, Blackgrass [13, 15]: 5
- Plant response rating, Blackgrass [13, 16]: 30
- Plant response rating, Blackgrass [13, 17]: 50
- Plant response rating, Corn (corn (Zea mays); [15]): 5
- Plant response rating, Corn (corn (Zea mays); [16]): 60
- Plant response rating, Corn (corn (Zea mays); [17]): 85
- Plant response rating, Ryegrass, Italian [14, 15]: 0
- Plant response rating, Ryegrass, Italian [14, 16]: 30
- Plant response rating, Ryegrass, Italian [14, 17]: 30

Structure (SMILES): O=C1CCCC(O)=C1C(=O)c1cnc(-c2ccsc2)n(C2CCOCC2)c1=O [Compound 186]
- Plant response rating, Canarygrass [1, 15]: 5
- Plant response rating, Canarygrass [1, 16]: 40
- Plant response rating, Canarygrass [1, 17]: 40
- Plant response rating, Windgrass [2, 15]: 10
- Plant response rating, Windgrass [2, 16]: 50
- Plant response rating, Windgrass [2, 17]: 65
- Plant response rating, Chickweed [3, 15]: 95
- Plant response rating, Chickweed [3, 16]: 100
- Plant response rating, Chickweed [3, 17]: 100
- Barley plant response rating (0 to 100 scale) ([4]; 13 to 15 days): 5
- Plant response rating, Barley [4, 15]: 0
- Plant response rating, Barley [4, 16]: 5
- Plant response rating, Barley [4, 17]: 5
- Plant response rating, Lambsquarters [5, 15]: 98
- Plant response rating, Lambsquarters [5, 16]: 100
- Plant response rating, Lambsquarters [5, 17]: 100
- Plant response rating, Oat, Wild (wild oat (Avena fatua); [15]): 0
- Plant response rating, Oat, Wild (wild oat (Avena fatua); [16]): 20
- Plant response rating, Oat, Wild (wild oat (Avena fatua); [17]): 45
- Plant response rating, Crabgrass, Large [6, 15]: 80
- Plant response rating, Crabgrass, Large [6, 16]: 85
- Plant response rating, Crabgrass, Large [6, 17]: 95
- Plant response rating, Soybean (soybean (Glycine max); [15]): 85
- Plant response rating, Soybean (soybean (Glycine max); [16]): 100
- Plant response rating, Soybean (soybean (Glycine max); [17]): 100
- Plant response rating, Cupgrass, Woolly [7, 15]: 70
- Plant response rating, Cupgrass, Woolly [7, 16]: 80
- Plant response rating, Cupgrass, Woolly [7, 17]: 85
- Plant response rating, Ragweed [8, 15]: 85
- Plant response rating, Ragweed [8, 16]: 100
- Plant response rating, Ragweed [8, 17]: 100
- Plant response rating, Velvetleaf [9, 15]: 70
- Plant response rating, Velvetleaf [9, 16]: 100
- Plant response rating, Velvetleaf [9, 17]: 100
- Bermudagrass plant response rating (0 to 100 scale) ([10]; 13 to 15 days): 80
- Plant response rating, Bermudagrass [10, 15]: 80
- Plant response rating, Bermudagrass [10, 16]: 95
- Plant response rating, Bermudagrass [10, 17]: 98
- Plant response rating, Nutsedge, Yellow [11, 15]: 65
- Plant response rating, Nutsedge, Yellow [11, 16]: 75
- Plant response rating, Nutsedge, Yellow [11, 17]: 80
- Plant response rating, Johnsongrass [12, 15]: 65
- Plant response rating, Johnsongrass [12, 16]: 75
- Plant response rating, Johnsongrass [12, 17]: 100
- Blackgrass plant response rating (0 to 100 scale) ([13]; 13 to 15 days): 0
- Plant response rating, Blackgrass [13, 15]: 0
- Plant response rating, Blackgrass [13, 16]: 5
- Plant response rating, Blackgrass [13, 17]: 20
- Plant response rating, Corn (corn (Zea mays); [15]): 10
- Plant response rating, Corn (corn (Zea mays); [16]): 30
- Plant response rating, Corn (corn (Zea mays); [17]): 65
- Plant response rating, Ryegrass, Italian [14, 15]: 0
- Plant response rating, Ryegrass, Italian [14, 16]: 0
- Plant response rating, Ryegrass, Italian [14, 17]: 30
